Measured values reported in patent US20260217701A1, “SELECTIVE BET INHIBITORS AND USES THEREOF” (Tay Therapeutics Limited, priority 2022, published 2026).
“And” between values parts separate entries of the source, which are not always exact repeats. Identical values can stand only once. “Also recorded” adds a separate entry of the source.

Columns and labels:
[1] = tested on: Col1a1, TGB-b1, MCP-1, IL-1b, IL-6, IL-17, TNF-α, Timp1; assay: UUO study: tissue RNA levels of biomarkers; format: in vivo, rats
Source text: Tables 29A-29B and FIGS. 28A-28B show tissue RNA levels of various biomarkers (Col1a1, TGB-b1, MCP-1, IL-1b, IL-6, IL-17, TNF-α, and Timp1) in sham rats (black bar in FIG. 28A; square shape in FIG. 28B), UUO rats treated with vehicle (grey bar in FIG. 28A; circle shape in FIG. 28B), and UUO rats treated with Compound A (white bar in FIG. 28A; triangle shape in FIG. 28B). […] FIG. 28C further illustrates gene expression levels of Col1a1, TGB-b1, IL-1b, IL-17, MCP-1, and IL-6 relative to the vehicle control. […] To place this reduction in context, IL-6 is said to be a significant contributor to a continued inflammatory response in certain nephritis conditions.

lupus = assay: SLE (lupus) model: blood urea nitrogen (BUN) in serum; format: in vivo, MRL/MpJ-Faslpr mice; conditions: Week 19
Experimental: Female MRL/MpJ-Faslpr mice (The Jackson Laboratory) were used to assess the efficacy of Compound A in treating lupus. Starting when animals were 10 weeks of age, protein concentration in urine was measured using urine dipsticks.
At the start of the study, each group in the study had two animals that were 9 weeks old, and all others were 10 weeks old. Dosing of all animals with the test compounds began when the older animals were 11 weeks old. Starting on Day 1, in Groups 1-4, vehicle or Compound A was administered per os (PO) […] (QD) as described above in Table 33. […] Dosing was at a consistent time each dosing day throughout the study.
Compound A may be formulated as illustrated in Experimental Method A (see Table 2E.). […] A stock solution of Compound A in DMSO (stock solution concentration of Compound A of 40 mg/mL) was prepared and aliquots for weekly preparations were frozen at −20° C. On each preparation day, a stock solution aliquot was thawed and diluted with other vehicle components to the desired concentration. Formulated Compound A and vehicle were at room temperature for dosing.
The study began when the older animals were 11 weeks old, and concluded when the older animals were 19 weeks old. Body weight was recorded once a week, with the exception of two weight measurements taken the first week of the study (when the older animals were 11 weeks old). Proteinuria was measured in the urine of animals with urine dipsticks once a week, starting when the older animals were 10 weeks old. […] Blood samples were taken retro-orbitally at the start of the study to establish a baseline (15 animals, 3 per group), and when the older animals were 16 weeks (all animals) and when animals were 19 weeks (all animals) at the conclusion of the study. Blood urea nitrogen (BUN) was measured in all animals at study termination in blood samples. After blood collection, animals were euthanized, perfused with PBS, and the left kidneys were collected and weighed and fixed in 10% buffered formalin. Left kidneys were then processed to a formalin-fixed, paraffin-embedded (FFPE) block, and histology was analyzed in Periodic Acid-Schiff-stained sections (1 section per slide), using the criteria described in Alperovich et al., Lupus, 16:18-24 (2007). Right kidneys were weighed and snap-frozen at −80° C. Spleens were also collected and weighed. SLE in animals treated with a BET inhibitor and vehicle.
BUN provides important information about how well kidneys are working. A BUN test measures the amount of urea nitrogen in the blood and indicates how much urea has been processed by the kidneys and is indicative of renal competency. Urea is a waste product that is excreted in urine.

[2] = UUO rats + Compound A, N=8, relative to UUO + Vehicle = 1.00
[3] = UUO rats, tissue, Compound A 10mg/kg QD, individual animals, 10 mg/kg

**Q.** Which “Col1a1 RNA level, Mean ± SEM” value [1, 2] does the source give for `Cn1cc(-c2ccccc2)c(-c2cn(C)c(=O)c3[nH]c(-c4cnn(C(F)(F)F)c4)cc23)cc1=O` [Compound A, 6-methyl-4-(1-methyl-2-oxo-5-phenyl-1,2-dihydropyridin-4-yl)-2-(1-(trifluoromethyl)-1H-pyrazol-4-yl)-1,6-dihydro-7H-pyrrolo[2,3-c]pyridin-7-one] here?
**A.** 0.39 ± 0.04

**Q.** What about the “IL-1b RNA level, Mean ± SEM” value [1, 2] of the same compound?
**A.** 0.31 ± 0.03

**Q.** And the “IL-6 RNA level, Mean ± SEM” value [1, 2]?
**A.** 0.11 ± 0.02

**Q.** What about the “IL-17 RNA level, Mean ± SEM” value [1, 2] of the same compound?
**A.** 0.35 ± 0.07

**Q.** And the “MCP-1 RNA level, Mean ± SEM” value [1, 2]?
**A.** 0.33 ± 0.05

**Q.** And the “TGF-b1 RNA level, Mean ± SEM” value [1, 2]?
**A.** 0.52 ± 0.05

**Q.** And the “TNF-a RNA level, Mean ± SEM” value [1, 2]?
**A.** 1.00 ± 0.11

**Q.** What about the “Timp1 RNA level, Mean ± SEM” value [1, 2] of the same compound?
**A.** 0.54 ± 0.09

**Q.** What about the “Col1a1 RNA level, Normalized Fold Change” value [1, 3] of the same compound?
**A.** 0.51 and 0.31 and 0.19 and 0.50 (2×) and 0.40 and 0.34 and 0.41

**Q.** What about the “IL-1b RNA level, Normalized Fold Change” value [1, 3] of the same compound?
**A.** 0.37 and 0.28 and 0.24 (3×) and 0.45 and 0.23 and 0.40

**Q.** And the “IL-6 RNA level, Normalized Fold Change” value [1, 3]?
**A.** 0.11 (2×) and 0.09 and 0.04 and 0.14 and 0.18 and 0.13 and 0.05

**Q.** And the “IL-17 RNA level, Normalized Fold Change” value [1, 3]?
**A.** 0.37 and 0.14 and 0.26 and 0.51 and 0.12 and 0.45 and 0.72 and 0.20

**Q.** What about the “MCP-1 RNA level, Normalized Fold Change” value [1, 3] of the same compound?
**A.** 0.48 and 0.24 and 0.18 and 0.34 and 0.44 and 0.25 and 0.50 and 0.20

**Q.** And the “TGF-b1 RNA level, Normalized Fold Change” value [1, 3]?
**A.** 0.71 and 0.42 and 0.28 and 0.58 and 0.64 (2×) and 0.40 and 0.50

**Q.** What about the “TNF-a RNA level, Normalized Fold Change” value [1, 3] of the same compound?
**A.** 1.50 and 1.16 and 1.00 and 0.79 and 1.05 and 0.62 and 1.20 and 0.64

**Q.** And the “Timp1 RNA level, Normalized Fold Change” value [1, 3]?
**A.** 0.83 and 0.41 and 0.36 and 0.72 (2×) and 0.66 and 0.09 and 0.52

**Q.** And the “Tissue RNA level of TNF-α” value ([1]; UUO rats, 10 mg/kg)?
**A.** no observable effect

**Q.** What about the “Tissue RNA levels of Col1a1, TGB-b1, MCP-1, IL-1b, IL-6, IL-17, Timp1” value ([1]; UUO rats, 10 mg/kg PO QD, vs vehicle, 10 mg/kg) of the same compound?
**A.** reduced levels of Colla1, TGB-b1, MCP-1, IL-1b, IL-6, IL-17, and Timp1; also recorded: markedly lower

**Q.** And the BUN serum concentration (lupus; Compound A 1 mg/kg PO QD)?
**A.** 18.0 mg/dL

**Q.** What about the BUN serum concentration (lupus; Compound A 3 mg/kg PO QD) of the same compound?
**A.** 16.8 mg/dL

**Q.** And the BUN serum concentration (lupus; Compound A 10 mg/kg PO QD)?
**A.** 11.0 mg/dL

**Q.** And the “Blood urea nitrogen (BUN) concentration in serum” value (lupus; highest dose (10 mg/mL))?
**A.** 11 mg/dL
